Measured values taken from patent US5580895A, “1,5-benzodiazepine derivatives” (Glaxo SpA, priority 1992, dated 1996).

Columns and labels:
CCK-A receptor [1] = experiment: CCK receptor binding, CCK-A (Pancreas Assay)
Method: (§1) The greater affinity of the compounds of the invention for the CCK-B receptor over the CCK-A receptor has also been established using the CCK receptor binding assays described by G. Dal Fornos et al., J. Pharmcol. Exp & Ther. 261, 1056-1063, 1992.
(§2) The binding affinity of the compounds of the invention for the CCK-A receptor (Pancreas Assay) and CCK-B receptor (guinea pig cortex assay) was determined using the procedure of G Dal Forno et al J. Pharmacol. Exp & Ther. 261-1056-1063. The pKi values determined with representative compounds of invention were as follows: […]

CCK-B receptor = target: T1, CCK-B receptor (Cavia porcellus, UniProt H0VZC5); experiment: CCK receptor binding, CCK-B (guinea pig cortex assay)
T1 construct: CCK-B receptor (guinea pig cortex assay); from tissue; host or cells: guinea pig cortex
Method: as §1, §2

CCK-A receptor [2] = target: T2, CCK-A receptor (Cavia porcellus, UniProt Q63931); experiment: CCK-A antagonist activity, guinea pig isolated ileum longitudinal muscle myenteric plexus (inhibition of contractile activity of CCK-8); assay type: cell-based
T2 construct: guinea pig isolated ileum longitudinal muscle myenteric plexus preparation; from tissue; host or cells: guinea pig isolated ileum longitudinal muscle-myenteric plexus
T2 sequence (Q63931 1-430): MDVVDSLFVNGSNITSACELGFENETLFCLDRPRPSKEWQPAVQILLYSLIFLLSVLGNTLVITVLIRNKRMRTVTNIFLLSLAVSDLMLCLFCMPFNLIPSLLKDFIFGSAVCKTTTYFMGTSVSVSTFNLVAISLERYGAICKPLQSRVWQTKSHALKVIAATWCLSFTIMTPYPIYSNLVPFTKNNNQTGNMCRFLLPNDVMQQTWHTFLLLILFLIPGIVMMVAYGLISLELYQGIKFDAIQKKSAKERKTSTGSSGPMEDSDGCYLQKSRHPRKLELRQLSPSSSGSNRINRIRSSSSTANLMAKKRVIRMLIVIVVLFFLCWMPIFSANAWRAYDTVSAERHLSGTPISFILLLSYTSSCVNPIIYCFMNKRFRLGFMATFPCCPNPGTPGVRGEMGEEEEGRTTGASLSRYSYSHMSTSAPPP
Method: The preparation and use of guinea-pig isolated ileum longitudinal muscle-myenteric plexus has been described by K-H Buchheit et al in Nauyn-Schmeideberg's Arch. Pharmacol, (1985), 329, p36-41 and by V. L. Lucaites et al (1991) in J. Pharmacol. Exp. Ther., 256, 695-703.
The CCK-A antagonist and CCK-B antagonist activities of compounds of the invention were determined using the guinea pig isolated ileum longitudinal muscle myenteric plexus preparation. The compounds were tested using the procedure G Dal
Forno et al J. Pharmacol. Exp & Ther. 261-1056-1063 1992 and the pKb value for each compound was determined.

mice and rats [3] = experiment: Toxicity / untoward effects on oral administration to mice and rats; assay type: in vivo; settings: orally to mice and rats at doses exhibiting anxiolytic activity
Text: (§3) The compounds of the invention are essentially non-toxic and therapeutically useful doses.

mice and rats [4] = experiment: Anxiolytic activity, oral, mice and rats; assay type: in vivo; settings: orally to mice and rats
Text: as §3

T1 sequence (H0VZC5 entry or part of it): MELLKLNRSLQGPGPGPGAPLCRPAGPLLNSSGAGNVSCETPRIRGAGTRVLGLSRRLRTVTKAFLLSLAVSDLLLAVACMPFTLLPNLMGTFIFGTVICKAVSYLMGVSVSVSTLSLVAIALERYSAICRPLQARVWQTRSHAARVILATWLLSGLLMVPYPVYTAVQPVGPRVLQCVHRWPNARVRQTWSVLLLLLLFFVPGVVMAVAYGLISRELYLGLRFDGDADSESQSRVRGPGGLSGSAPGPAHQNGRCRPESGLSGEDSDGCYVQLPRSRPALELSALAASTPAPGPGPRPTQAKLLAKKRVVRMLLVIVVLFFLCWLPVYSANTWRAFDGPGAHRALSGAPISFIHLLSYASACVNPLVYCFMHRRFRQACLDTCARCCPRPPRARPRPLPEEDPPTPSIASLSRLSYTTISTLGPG

Structure (SMILES) | pKi CCK-A (CCK-A receptor [1]) | further results
CC(C)CCN1C(=O)C(NC(=O)Nc2ccccc2)C(=O)N(c2ccccc2)c2cc(Cl)ccc21 (centres unmarked) [Example 9, N-[7-Chloro-2,4-dioxo-1-(3-methylbut-1-yl)-5-phenyl-2,3,4,5-tetrahydro-1H-1,5-benzodiazepin-3-yl]-N'-phenylurea] | 6.02 | –
O=C(Nc1ccccc1)NC1C(=O)N(CC2CC3C=CC2C3)c2ccccc2N(c2ccccc2)C1=O (centres unmarked) [Example 31, N-[1-(Bicyclo[2.2.1]-5-heptene-2-ylmethyl)-2,4-dioxo-5-phenyl-2,3,4,5-tetrahydro-1H-1,5-benzodiazepin-3-yl]-N'-phenylurea] | 6.76 | –
O=C(Nc1cccc([N+](=O)[O-])c1)NC1C(=O)N(CC23CC4CC(CC(C4)C2)C3)c2ccccc2N(c2ccccc2)C1=O (centres unmarked) [Example 39, N-[1-(1-Adamantylmethyl)-2,4-dioxo-5-phenyl-2,3,4,5-tetrahydro-1H-1,5-benzodiazepin-3-yl]-N'-(3-nitrophenyl)urea] | 6.52 | –
CC(C)CCN1C(=O)C(NC(=O)Nc2cccc(N(C)C)c2)C(=O)N(c2ccccc2F)c2ccccc21 (single isomer, unassigned; (+)) [Example 27, (+)-N-[2,4-Dioxo-5-(2-fluorophenyl)-1-(3-methylbut-1-yl)-2,3,4,5-tetrahydro-1H-1,5-benzodiazepin-3-yl]-N'-[3-(N,N-dimethylamino)phenyl]urea] | 6.83 | Ki (CCK-B receptor): 0.288 nM
CC(C)(C)C(O)CN1C(=O)C(NC(=O)Nc2ccccc2)C(=O)N(c2ccccc2F)c2ccccc21 (centres unmarked) [Example 7A, N-[1-(3,3-Dimethyl-2-hydroxybut-1-yl)-2,4-dioxo-5-(2-fluorophenyl)-2,3,4,5-tetrahydro-1H-1,5-benzodiazepin-3-yl]-N'-phenylurea] | 6.33 | –
CC(C)CCN1C(=O)C(NC(=O)Nc2ccccc2)C(=O)N(c2ccccc2)c2ccccc21 (single isomer, unassigned; (+)) [Example 26, (+)-N-[2,4-Dioxo-5-phenyl-1-(3-methylbut-1-yl)-2,3,4,5-tetrahydro-1H-1,5-benzodiazepin-3-yl]-N'-phenylurea] | – | Kb (CCK-A receptor [2]; read-out: pKb CCK-A (converted)): ≥ 3160 nM
O=C(Nc1ccccc1)NC1C(=O)N(CC23CC4CC(CC(C4)C2)C3)c2ccccc2N(c2ccccc2)C1=O (centres unmarked) [Example 14, N-[1-(1-Adamantyl)methyl-2,4-dioxo-5-phenyl-2,3,4,5-tetrahydro-1H-1,5-benzodiazepin-3-yl]-N'-phenylurea] | 6.15 | –
CC(C)CCN1C(=O)C(NC(=O)Nc2ccccc2)C(=O)N(c2ccccc2)c2cc(Cl)c(Cl)cc21 (centres unmarked) [Example 11, N-[7,8-dichloro-2,4-Dioxo-1-(3-methylbut-1-yl)-5-phenyl-2,3,4,5-tetrahydro-1H-1,5-benzodiazepin-3-yl]-N'-phenylurea] | 5.80 | –
CC(C)CCN1C(=O)C(NC(=O)Nc2ccccc2)C(=O)N(c2ccccc2)c2ccccc21 (centres unmarked) [Example 25, N-[2,4-Dioxo-5-phenyl-1-(3-methylbut-1-yl)-2,3,4,5-tetrahydro-1H-1,5-benzodiazepin-3-yl]-N'-phenylurea] | – | pKb CCK-A (CCK-A receptor [2]): < 6.0
CN(C)c1ccc(NC(=O)NC2C(=O)N(CCC3CCCC3)c3ccccc3N(c3ccccc3F)C2=O)cc1 (centres unmarked) [Example 30, N-[1-(2-cyclopentyl-ethyl)-2,4-dioxo-5-(2-fluorophenyl)-2,3,4,5-tetrahydro-1H-1,5-benzodiazepin-3-yl]-N'-[4-(dimethylamino)phenyl]urea] | 7.00 | –
CCOC(=O)c1cccc(NC(=O)NC2C(=O)N(CC34CC5CC(CC(C5)C3)C4)c3ccccc3N(c3ccccc3)C2=O)c1 (centres unmarked) [Example 41, N-[1-(1-Adamantylmethyl)-2,4-dioxo-5-phenyl-2,3,4,5-tetrahydro-1H-1,5-benzodiazepin-3-yl]-N'-(3-ethoxycarbonylphenyl)urea] | 6.09 | –
CC(C)CCN1C(=O)C(NC(=O)Nc2cccc(N(C)C)c2)C(=O)N(c2ccccc2F)c2ccccc21 (centres unmarked) [Example 4, N-[2,4-dioxo-5-(2-fluorophenyl)-1-(3-methylbut-1-yl)-2,3,4,5-tetrahydro-1H-1,5-benzodiazepin-3-yl]-N'-(3-dimethylamino)phenylurea] | 6.9 | –
CC(C)(C)CCN1C(=O)C(NC(=O)Nc2ccccc2)C(=O)N(c2ccccc2)c2ccccc21 (centres unmarked) [Example 16, N-[1-(3,3-Dimethylbutyl)-2,4-dioxo-5-phenyl-2,3,4,5-tetrahydro-1H-1,5-benzodiazepin-3-yl]-N'-phenylurea] | 6.95 | –
O=C(Nc1ccccc1)NC1C(=O)N(CC23CC4CC(CC(C4)C2)C3)c2ccccc2N(c2ccccc2)C1=O (single isomer, unassigned; (+)) [Example 45, (+)-N-[1-(Adamantanmethyl)-2,4-dioxo-5-phenyl-2,3,4,5-tetrahydro-1H-1,5-benzodiazepin-3-yl]-N'-phenylurea] | 5.95 | untoward effects (mice and rats [3]): no untoward effects were observed; anxiolytic activity (mice and rats [4]): exhibits anxiolytic activity
